The values that follow come from article PMC12851022, “Targeting the Spliceosomal Protein USP39 Through Allosteric Ligands and PROTAC‐Induced Degradation” (Angewandte Chemie (International Ed. in English), 2025).

pKd: −log10 of the molar value.

For one experiment, the target named is T1, USP39_FL (Homo sapiens, UniProt Q53GS9).
T1 construct: made in house
T1 sequence (Q53GS9 1-565): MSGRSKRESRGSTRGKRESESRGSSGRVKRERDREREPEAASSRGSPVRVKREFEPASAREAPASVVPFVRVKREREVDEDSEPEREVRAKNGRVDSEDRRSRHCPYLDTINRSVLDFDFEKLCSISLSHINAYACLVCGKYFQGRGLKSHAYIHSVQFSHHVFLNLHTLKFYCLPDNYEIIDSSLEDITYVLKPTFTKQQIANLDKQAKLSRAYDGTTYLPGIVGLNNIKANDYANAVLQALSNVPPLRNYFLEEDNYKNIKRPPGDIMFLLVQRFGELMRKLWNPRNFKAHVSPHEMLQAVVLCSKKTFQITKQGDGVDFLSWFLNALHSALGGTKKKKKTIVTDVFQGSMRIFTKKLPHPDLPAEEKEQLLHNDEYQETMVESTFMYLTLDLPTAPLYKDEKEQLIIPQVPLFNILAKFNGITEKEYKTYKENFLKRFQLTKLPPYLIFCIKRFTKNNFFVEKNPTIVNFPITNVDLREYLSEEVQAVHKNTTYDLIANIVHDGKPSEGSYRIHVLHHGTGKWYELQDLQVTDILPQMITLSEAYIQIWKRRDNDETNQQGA
The experiment can be described thus: Thermal shift assay (TSA) with full-length USP39. It is filed as binding. The source says: To identify potential USP39 binders, we purified full‐length USP39 protein (USP39_FL, Figure SI1B) and conducted chemical screening using two complementary strategies. First, an in‐house bioactive collection of approximately 200 small molecules, previously assembled from our studies on cellular reprogramming, was screened using thermal shift assay (TSA, Figure 1a).^[ [2], [23], [24], [25], [26] ^] […] In parallel, a DNA‐encoded library (DEL) screening comprising roughly 600 million unique small molecules was performed. Each DEL compound carries a covalently attached DNA barcode that enables identification after target binding. For this screening, purified USP39_FL protein was immobilized on magnetic beads and incubated with the library; unbound molecules were washed away, and bound DNA‐tagged compounds were eluted. […]
Figure 1 Chemical screening identified thiazole‐containing compounds as USP39 binders. a) AlphaFold3‑predicted structure of full‐length USP39 (USP39_FL) showing three domains: an N‑terminal RS‑like domain (grey), a central zinc‑finger (ZNF) domain (cyan), and a C‑terminal USP domain (gold). […] The ΔT values are therefore given under an empty label, with the protein construct written in front. / Panels b and d: the print is small, so the digits in 55.0, 57.5, -2.5, -2.0 and -1.5 are best readings. […]

A further experiment deals with T2, USP39_T2 (Homo sapiens, UniProt Q53GS9).
T2 construct: USP39_T2 (ZNF domain only); made in house
T2 sequence (Q53GS9 103-200 limits assumed): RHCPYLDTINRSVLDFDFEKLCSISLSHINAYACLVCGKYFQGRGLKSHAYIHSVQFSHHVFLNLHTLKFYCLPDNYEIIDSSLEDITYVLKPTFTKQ
The experiment can be described thus: Isothermal titration calorimetry (ITC). It is filed as binding.

Experiment [1] has as its target T3, USP39 / VHL_m ternary complex (Homo sapiens, UniProt P40337+Q53GS9, DEL91-121).
T3 construct: expressed in transfected cells; host or cells: HEK293T
The experiment can be described thus: FRET assay of ternary complex formation in cells, VHL_m. Particulars: in the presence of MLN4924. Format: cell-based. The procedure:
Figure 4 Effective and selective degradation of USP39 in cells by USP39‐PROTACs. a) Optimization of cellular degradation assay in HeLa cells transiently overexpressing USP39‑OFP (HeLa‐USP39‐OFP). […] GAPDH was used as a loading control. g) Proteasome dependence of USP39 degradation. HeLa‐WT cells were co‐treated with MG132 (0.25 µM) or DMSO control and USP39_PROTAC_V1 for 24 h ST. h) Representative immunofluorescence images of HeLa‐USP39_OFP cells treated with DMSO (NT), USP39_PROTAC_V1 (10 nM, 24 h), or USP39_PROTAC_V1 + MLN4924 (1 µM), stained for USP39 (red) and nuclei (blue). i) Quantification of USP39 degradation by fluorescence microscopy, showing DC50 values of 13 nM without MLN4924 (orange) and 204 nM with MLN4924 (blue) (MLN4924 = 5 uM). j) VHL‐dependence of PROTAC‐induced degradation. Schematic of PROTAC recruitment to VHL via hydroxyl‐proline interactions (His115, Ser111). Western blot comparing USP39 levels in VHL WT and VHL KO HeLa cells treated with USP39_PROTAC_V1. k) Fluorescence assay in HEK293T cells co‐expressing USP39‑OFP and either VHL_WT‑EGFP or VHL_m (Δ91–121). […] Comparison of untreated (NT) and USP39_PROTAC_V1–treated (10 nM, 24 h) samples. Percent spliced/unspliced (S/U) ratios are shown, reflecting USP39‐deficiency–associated splicing defects. Data represent at least four independent biological replicates. […]

Another experiment addresses USP39 / VHL (Homo sapiens, UniProt P40337+Q53GS9). The experiment can be described thus: Co-immunoprecipitation of VHL with western blot for ubiquitin, USP39 and VHL. Format: cell-based. Particulars: in the presence of MLN4924. (In general: A western blot detects proteins with antibodies after separation by electrophoresis.)
Another experiment addresses T4, USP39 (Homo sapiens, UniProt Q53GS9).
T4 sequence (Q53GS9 1-565): T1 sequence (Q53GS9 1-565)
The experiment can be described thus: USP39 degradation across four cell lines (HeLa, HEK293T, LNCap, Kelly). It is filed as cell-based. The arrangement: endogenous in cells; host or cells: HeLa-WT; HEK293T; LNCap; Kelly. Particulars: for Concentration at which USP39 degradation was initiated: HeLa, HEK293T, LNCap, Kelly.

Chain of USP39 / VHL (P40337 whole entry, one chain of several): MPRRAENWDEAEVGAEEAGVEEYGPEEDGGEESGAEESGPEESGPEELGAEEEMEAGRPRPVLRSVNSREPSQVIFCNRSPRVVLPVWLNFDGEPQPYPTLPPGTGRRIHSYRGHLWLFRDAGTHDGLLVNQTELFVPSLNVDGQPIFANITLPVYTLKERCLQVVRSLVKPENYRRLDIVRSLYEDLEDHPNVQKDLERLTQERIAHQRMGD
Chain of USP39 / VHL (Q15370 whole entry partner, one chain of several): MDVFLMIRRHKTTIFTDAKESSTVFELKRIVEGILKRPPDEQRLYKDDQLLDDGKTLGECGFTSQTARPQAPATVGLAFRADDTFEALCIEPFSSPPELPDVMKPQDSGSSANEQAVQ
Chain of USP39 / VHL (Q15369 whole entry partner, one chain of several): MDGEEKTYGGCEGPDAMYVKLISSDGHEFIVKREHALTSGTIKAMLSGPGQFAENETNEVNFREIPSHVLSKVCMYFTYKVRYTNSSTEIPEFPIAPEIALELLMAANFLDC
T3 sequence (P40337 with tags, fused parts or gaps DEL91-121, one chain of several): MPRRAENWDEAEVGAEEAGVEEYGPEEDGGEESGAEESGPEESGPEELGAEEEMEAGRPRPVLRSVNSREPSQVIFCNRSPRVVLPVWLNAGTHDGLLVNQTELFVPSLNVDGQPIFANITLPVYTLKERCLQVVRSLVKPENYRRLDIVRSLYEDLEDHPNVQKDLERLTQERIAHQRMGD

Consider `Cc1ncsc1-c1ccc(CNC(=O)C2CC(O)CN2C(=O)C(NC(=O)CCOCCOCCOCCNC(=O)c2csc(Nc3ccc(Cl)cc3)n2)C(C)(C)C)cc1` (stereo not shown) [USP39_PROTAC_V1], for which the “∆T (T max_Compound − T max_USP39), USP39_FL” value at USP39_FL was “comparable to that induced by USP39_B1”. Besides, the pKd on USP39_T2 is 6.87. Also, the “FRET signal of ternary complex formation” value in experiment [1] is “minimal signal”. The “Co-immunoprecipitation from VHL pull-downs” value at USP39 / VHL is “enrichment of USP39 and polymerized ubiquitin”. In addition, on USP39, the “Concentration above which USP39 levels recover (hook-effect)” value is “above 500 nM”. Besides, the figures for the “Concentration at which USP39 degradation was initiated” value at USP39 (6 h of treatment) and on USP39 (24 h of treatment) were 5 nM and 1 nM, respectively.

As usually defined, the pKd is the Kd on a negative log10 scale, so that one unit is a factor of ten. Low values mean a high Kd, high ones a low Kd.
